One assay deals with T1, human IR-A (holoIR-A) (Homo sapiens, UniProt P06213).
T1 construct: expressed in transfected cells; host or cells: HEK293 (ATCC #CRL-1573), stably transfected; membrane preparation
The experiment in a line: holoIR-A competitive radioligand binding assay (scintillation proximity assay). In short, it runs like this: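 Membranes from HEK293 cells stably expressing C9-tagged human IR-A were used in a WGA-bead SPA competition assay in 50 mM Tris-HCl pH 7.5, 150 mM NaCl, 0.1% fatty-acid-free BSA. Ten-point 3-fold dilutions were incubated 10 h at room temperature before scintillation counting. Percent specific inhibition was calculated after nonspecific-binding correction, from three independent runs.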
In general terms: SPA uses beads or plates that emit light when radiolabelled molecules are held near them.

Assay [1] deals with T2, human holoIR-A over-expressed in HEK293 cells (Homo sapiens, UniProt P06213).
T2 construct: expressed in transfected cells; host or cells: HEK293, stably transfected
T2 sequence (P06213 28-1370 isoform P06213-2 limits assumed): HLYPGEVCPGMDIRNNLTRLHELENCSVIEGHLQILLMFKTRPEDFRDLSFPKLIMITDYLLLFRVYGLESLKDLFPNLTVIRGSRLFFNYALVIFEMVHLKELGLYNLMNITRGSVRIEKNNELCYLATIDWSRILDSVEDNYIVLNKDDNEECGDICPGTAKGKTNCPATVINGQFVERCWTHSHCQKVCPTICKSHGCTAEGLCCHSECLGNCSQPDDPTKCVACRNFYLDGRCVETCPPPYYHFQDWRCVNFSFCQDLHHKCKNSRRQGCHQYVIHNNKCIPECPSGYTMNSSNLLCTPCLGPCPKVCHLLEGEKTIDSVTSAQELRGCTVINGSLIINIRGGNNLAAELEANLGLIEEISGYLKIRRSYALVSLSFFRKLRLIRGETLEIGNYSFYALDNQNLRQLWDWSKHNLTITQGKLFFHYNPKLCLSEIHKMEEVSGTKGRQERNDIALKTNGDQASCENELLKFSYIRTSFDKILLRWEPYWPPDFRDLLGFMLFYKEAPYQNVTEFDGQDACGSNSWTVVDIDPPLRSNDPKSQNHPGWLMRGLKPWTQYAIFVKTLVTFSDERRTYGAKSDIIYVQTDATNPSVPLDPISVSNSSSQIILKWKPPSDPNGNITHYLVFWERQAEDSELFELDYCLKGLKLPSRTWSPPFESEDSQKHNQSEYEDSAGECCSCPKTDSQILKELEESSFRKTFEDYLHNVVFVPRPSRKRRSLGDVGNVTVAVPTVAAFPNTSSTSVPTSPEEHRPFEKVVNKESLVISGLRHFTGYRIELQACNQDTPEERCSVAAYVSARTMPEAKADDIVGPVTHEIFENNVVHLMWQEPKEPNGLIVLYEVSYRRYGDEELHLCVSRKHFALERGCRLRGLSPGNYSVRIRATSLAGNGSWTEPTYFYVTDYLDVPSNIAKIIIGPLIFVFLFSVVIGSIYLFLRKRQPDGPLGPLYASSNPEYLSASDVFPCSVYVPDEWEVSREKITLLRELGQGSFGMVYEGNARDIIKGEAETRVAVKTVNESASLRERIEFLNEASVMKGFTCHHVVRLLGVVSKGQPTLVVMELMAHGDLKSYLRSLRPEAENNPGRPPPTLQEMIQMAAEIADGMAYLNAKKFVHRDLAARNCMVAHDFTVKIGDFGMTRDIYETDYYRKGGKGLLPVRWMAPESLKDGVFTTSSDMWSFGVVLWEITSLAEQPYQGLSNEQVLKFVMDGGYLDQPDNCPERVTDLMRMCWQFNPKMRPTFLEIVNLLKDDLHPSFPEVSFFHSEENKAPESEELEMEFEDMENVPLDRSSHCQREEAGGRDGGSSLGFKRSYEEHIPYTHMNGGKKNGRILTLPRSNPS
T2 sequence (P06213 763-1382 partner limits assumed): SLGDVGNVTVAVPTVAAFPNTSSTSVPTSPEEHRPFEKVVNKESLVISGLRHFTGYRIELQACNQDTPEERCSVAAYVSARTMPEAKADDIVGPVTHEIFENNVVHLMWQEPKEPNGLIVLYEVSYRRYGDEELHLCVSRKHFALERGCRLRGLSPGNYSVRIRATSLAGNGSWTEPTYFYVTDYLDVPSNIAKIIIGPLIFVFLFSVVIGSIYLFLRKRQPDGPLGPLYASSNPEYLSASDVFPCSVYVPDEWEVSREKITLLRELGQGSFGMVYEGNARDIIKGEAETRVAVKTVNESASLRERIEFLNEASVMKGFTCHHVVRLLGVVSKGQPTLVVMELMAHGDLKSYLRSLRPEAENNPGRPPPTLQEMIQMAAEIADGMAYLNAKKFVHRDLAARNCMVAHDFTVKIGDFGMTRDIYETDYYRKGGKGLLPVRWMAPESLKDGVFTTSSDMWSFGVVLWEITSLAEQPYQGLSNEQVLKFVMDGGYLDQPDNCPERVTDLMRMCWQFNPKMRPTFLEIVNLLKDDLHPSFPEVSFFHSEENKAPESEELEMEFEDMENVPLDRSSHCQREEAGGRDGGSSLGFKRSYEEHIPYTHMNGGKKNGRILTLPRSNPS
The experiment in a line: holoIR-A auto-phosphorylation assay (ELISA). It counts as cell-based. The method, then: Phosphorylation was quantified using an ELISA technique. Ninety-six well, flat-bottom microplates (Greiner Bio-One) were pre-coated with 2 µg mL^−1 anti-C9 monoclonal antibody (Rho 1D4; University of British Columbia)[27] in 20 mM sodium carbonate, pH 9.6, at 4 °C for overnight prior to the assay. On the assay day, plates were washed 3× with 0.1% Tween in 50 mM Tris Buffer Saline, pH 7.5 (TBST), and then blocked for greater than 1 h at room temperature (RT) with 1% BSA (Sigma) in TBST.
Stably transfected HEK293 cells over-expressing human holoIR-A containing a C-terminal C9 epitope tag ([…]), were plated at 6 × 10^4 cells per well serum-starved using 0.1% BSA in DMEM (Gibco) for overnight at standard tissue culture condition. […] After a 15-min incubation in lysis buffer at 4 °C, the lysate was transferred to anti-C9 antibody coated capture plate (Rho 1D4; University of British Columbia)[27]. […] After a 1 h incubation at room temperature, the secondary antibody was removed by washing 3× with TBST. Signal detection occurred with the addition of TMB, an HRP substrate (Pierce). After 5–10 min, the reaction was stopped by adding an equal volume of 2 M H2SO4, and the absorbance readings at 450 nm (A450) were recorded using a Envision plate reader (PerkinElmer). Samples were tested in three independent assay runs on three different days.
Percent specific response (y-axis) was plotted versus the log concentration of compound (x-axis) using Prism Version 9.3.1 (GraphPad Software). Individual measurements are provided as Source Data.

Assay [2] addresses T2, human holoIR-A over-expressed in HEK293 cells. The assay can be described thus: Inhibition of hIR phosphorylation by peptides, co-incubated with BHI at its EC50 (ELISA). Format: cell-based. Particulars: for hIRA Phosph IC50 Run 1 / hIRA Phosph IC50 Run 2 / hIRA Phosph IC50 Run 3: inhibition of insulin-stimulated phosphorylation; for hIRA Phosph IC50 Run 1: BHI at its EC50, run 1; for hIRA Phosph IC50 Run 2: BHI at its EC50, run 2; for hIRA Phosph IC50 Run 3: BHI at its EC50, run 3; for IC50: read-out: hIRA Phosph IC50 Mean. In outline:
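Phosphorylation ELISA (TMB, A450) after anti-C9 capture of lysates from stably transfected HEK293 cells expressing C-terminally C9-tagged human holoIR-A, serum-starved overnight in 0.1% BSA/DMEM. Percent specific response versus log concentration, from three independent runs on three days.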
In general terms: An ELISA detects its analyte on a solid surface through an enzyme-linked reagent.

Where [3] appears, read: primary peptide set, mean of 3 runs, read-out: IRA Binding Ki Mean.
The mark [4] stands for this setting: primary peptide set, mean of 3 runs, read-out: hIRA Phosph EC50 Mean.
Where [5] appears, read: IM172N22(-) mutant peptide set, mean of 3 runs, read-out: hIRA Binding Ki Mean.
Where [6] appears, read: IM172N22(-) mutant peptide set, run 1, read-out: hIRA Binding Ki Run 1.
Where [7] appears, read: IM172N22(-) mutant peptide set, run 2, read-out: hIRA Binding Ki Run 2.
The mark [8] stands for this setting: IM172N22(-) mutant peptide set, run 3, read-out: hIRA Binding Ki Run 3.

Structures are written as SMILES. Where two headings read alike, the source gives them in different places. Positions of bridges follow the written chain, without caps; N, C: chain ends. Residues, ends and D or L forms follow the SMILES beside them. Where only a bound is given, the exact number is not on record here.

T1 sequence (P06213 28-1370 isoform P06213-2 limits assumed): as the sequence (P06213 28-1370 isoform P06213-2 limits assumed) above
T1 sequence (P06213 763-1382 partner limits assumed): as the sequence (P06213 763-1382 partner limits assumed) above

The term Ki denotes a measure of affinity in units of concentration, obtained from inhibition or displacement. One may read the EC50 as the concentration giving half of the maximal effect. Turning to `CC(C)C[C@H](NC(=O)[C@H](CCC(N)=O)NC(=O)[C@H](CCCNC(=N)N)NC(=O)[C@H](CCC(=O)O)NC(=O)[C@H](Cc1ccccc1)NC(=O)[C@H](Cc1c[nH]c2ccccc12)NC(=O)[C@H](CC(=O)O)NC(=O)[C@H](Cc1ccc(O)cc1)NC(=O)[C@H](Cc1ccccc1)NC(=O)[C@H](CO)NC(=O)[C@H](CCC(=O)O)NC(=O)[C@H](CC(=O)O)NC(=O)[C@H](CC(C)C)NC(=O)[C@H](CO)NC(=O)CNC(=O)[C@H](CO)NC(=O)[C@@H]1CCCN1C(=O)[C@@H]1CSSC[C@H](NC(=O)[C@H](CCC(=O)O)NC(=O)[C@@H](NC(=O)[C@H](CCC(N)=O)NC(=O)[C@H](C)NC(=O)[C@H](Cc2c[nH]c3ccccc23)NC(=O)[C@H](CCC(=O)O)NC(=O)[C@H](CCC(=O)O)NC(=O)[C@H](CCC(=O)O)NC(=O)[C@H](CC(C)C)NC(=O)[C@@H](N)CO)C(C)C)C(=O)N[C@@H](CCC(=O)O)C(=O)N[C@@H](C(C)C)C(=O)N[C@@H](Cc2ccc(O)cc2)C(=O)NCC(=O)N[C@@H](CCCNC(=N)N)C(=O)NCC(=O)N1)C(=O)NCC(=O)O` [Peptide S519, reference compound] (H-SLEEEWAQVECEVYGRGCPSGSLDESFYDWFERQLG-OH; disulfide 11-18), the Ki at human IR-A (holoIR-A) (setting [3]) came out at 3.18 nM. Besides, in assay [1] (setting [4]), the EC50 was 6.04 nM.
Regarding `COc1ccc(C[C@H](NC(=O)[C@H](CO)NC(=O)[C@H](CCC(=O)O)NC(=O)[C@H](CO)NC(=O)[C@@H]2CCCN2C(C)=O)C(=O)N[C@@H](Cc2ccc(O)cc2)C(=O)N[C@@H](CCCCN)C(=O)N[C@@H](Cc2c[nH]c3ccccc23)C(=O)N[C@@H](Cc2ccccc2)C(=O)N[C@@H](CCC(=O)O)C(=O)N[C@@H](CCCNC(=N)N)C(=O)N[C@@H](CCC(N)=O)C(=O)N[C@@H](CC(C)C)C(N)=O)cc1` [IM172C13] (Ac-PSESY(Me)YKWFERQL-NH2), the Ki at human IR-A (holoIR-A) (setting [3]) came out at 310 nM. For the same compound, the “weaker affinity for hIR-A than BHI” value on human IR-A (holoIR-A) (relative to biosynthetic human insulin) is around 1000 fold. Also, in assay [1], the “activity in hIR autophosphorylation assay (in words)” value is reported as “devoid of detectable activity”. Moreover, the EC50 in assay [1] (Fig. 1b, HEK293 hIR-A cells, 1 h 37 °C, ELISA, errors given as SEM, n = 3 independent replicates, read-out: Auto-phosphorylation constant EC50) is above 10000 nM; in assay [1] (setting [4]) it was above 10000 nM. For the same compound, the “hIRA Phosph EC50 Run 1” value in assay [1] (primary peptide set, run 1) was above 10000 nM. In addition, the “hIRA Phosph EC50 Run 2” value in assay [1] (primary peptide set, run 2) was above 10000 nM. In addition, the “hIRA Phosph EC50 Run 3” value in assay [1] (primary peptide set, run 3) is above 10000 nM.
Usually IC50 stands for the concentration that gives 50% inhibition. On to `CC[C@H](C)[C@H](NC(=O)[C@H](CCC(N)=O)NC(=O)[C@H](C)NC(=O)[C@H](Cc1c[nH]c2ccccc12)NC(=O)[C@H](CCC(=O)O)NC(=O)[C@H](CCC(=O)O)NC(=O)[C@H](CCC(=O)O)NC(=O)[C@H](CC(C)C)NC(=O)[C@H](CO)NC(C)=O)C(=O)N[C@@H](CCC(=O)O)C(=O)N[C@H]1CSSC[C@@H](C(=O)N2CCC[C@H]2C(=O)N2CCC[C@H]2C(=O)N[C@@H](CO)C(=O)N[C@@H](CCCNC(=N)N)C(=O)N[C@@H](CO)C(N)=O)NC(=O)[C@H](CCCNC(=N)N)NC(=O)CNC(=O)[C@H](Cc2ccc(O)cc2)NC(=O)[C@H](C(C)C)NC(=O)[C@H](CCC(=O)O)NC1=O` [Peptide E21R] (Ac-SLEEEWAQIECEVYGRCPPSRS-NH2; disulfide 11-17), for which the Ki on human IR-A (holoIR-A) (setting [5]) was found to be 8.9 nM. Besides, the Ki at human IR-A (holoIR-A) (setting [6]) came out at 8.75 nM. The Ki on human IR-A (holoIR-A) (setting [7]) was 8.05 nM. In addition, on human IR-A (holoIR-A) (setting [8]), the inhibitory constant (Ki) is recorded as 9.91 nM. For the same compound, in assay [2], the “hIRA Phosph IC50 Run 1” value is reported as 28 nM, the “hIRA Phosph IC50 Run 2” value is on record as 27 nM, the “hIRA Phosph IC50 Run 3” value is 29 nM and the IC50 was 28.1 nM.
With `CC[C@H](C)[C@H](NC(=O)[C@H](CCC(N)=O)NC(=O)[C@H](C)NC(=O)[C@H](Cc1c[nH]c2ccccc12)NC(=O)[C@H](CCC(=O)O)NC(=O)[C@H](CCC(=O)O)NC(=O)[C@H](CCC(=O)O)NC(=O)[C@H](CC(C)C)NC(=O)[C@H](CO)NC(C)=O)C(=O)N[C@@H](CCC(=O)O)C(=O)N[C@H]1CSSC[C@@H](C(=O)N2CCC[C@H]2C(=O)N2CCC[C@H]2C(=O)N[C@@H](CO)C(=O)N[C@@H](CCC(=O)O)C(=O)N[C@@H](CO)C(N)=O)NC(=O)[C@H](CCCNC(=N)N)NC(=O)CNC(=O)[C@H](Cc2ccc(O)cc2)NC(=O)[C@H](C(C)C)NC(=O)[C@H](C)NC1=O` [Peptide E12A] (Ac-SLEEEWAQIECAVYGRCPPSES-NH2; disulfide 11-17), the Ki at human IR-A (holoIR-A) (setting [5]) stood at 50.3 nM. The Ki at human IR-A (holoIR-A) (setting [6]) came to 44.9 nM. Moreover, the Ki on human IR-A (holoIR-A) (setting [7]) is reported as 52.2 nM. Besides, on human IR-A (holoIR-A) (setting [8]), the Ki was 53.9 nM. Moreover, in assay [2], the “hIRA Phosph IC50 Run 1” value stood at 343 nM, the “hIRA Phosph IC50 Run 2” value is 247 nM, the “hIRA Phosph IC50 Run 3” value is listed as 295 nM and the IC50 came out at 295 nM.
For `CC[C@H](C)[C@H](NC(=O)[C@H](CCC(N)=O)NC(=O)[C@H](C)NC(=O)[C@H](Cc1c[nH]c2ccccc12)NC(=O)[C@H](CCCNC(=N)N)NC(=O)[C@H](CCC(=O)O)NC(=O)[C@H](CCC(=O)O)NC(=O)[C@H](CC(C)C)NC(=O)[C@H](CO)NC(C)=O)C(=O)N[C@@H](CCC(=O)O)C(=O)N[C@H]1CSSC[C@@H](C(=O)N2CCC[C@H]2C(=O)N2CCC[C@H]2C(=O)N[C@@H](CO)C(=O)N[C@@H](CCC(=O)O)C(=O)N[C@@H](CO)C(N)=O)NC(=O)[C@H](CCCNC(=N)N)NC(=O)CNC(=O)[C@H](Cc2ccc(O)cc2)NC(=O)[C@H](C(C)C)NC(=O)[C@H](CCC(=O)O)NC1=O` [Peptide E5R] (Ac-SLEERWAQIECEVYGRCPPSES-NH2; disulfide 11-17), the Ki on human IR-A (holoIR-A) (setting [5]) came to 554 nM. Moreover, the Ki on human IR-A (holoIR-A) (setting [6]) stood at 620 nM. At human IR-A (holoIR-A) (setting [7]), the Ki was 541 nM. The Ki at human IR-A (holoIR-A) (setting [8]) was found to be 500 nM. Further, in assay [2], the “hIRA Phosph IC50 Run 1” value is 1351 nM, the “hIRA Phosph IC50 Run 2” value stood at 1340 nM, the “hIRA Phosph IC50 Run 3” value turned out to be 1323 nM and the IC50 worked out at 1340 nM.
Take `CC[C@H](C)[C@H](NC(=O)[C@H](CCC(N)=O)NC(=O)[C@H](C)NC(=O)[C@H](Cc1c[nH]c2ccccc12)NC(=O)[C@H](CCC(=O)O)NC(=O)[C@H](CCC(=O)O)NC(=O)[C@H](CCC(=O)O)NC(=O)[C@H](CC(C)C)NC(=O)[C@H](CO)NC(C)=O)C(=O)N[C@@H](CCC(=O)O)C(=O)N[C@H]1CSSC[C@@H](C(=O)N2CCC[C@H]2C(=O)N[C@@H](C)C(=O)N[C@@H](CO)C(=O)N[C@@H](CCC(=O)O)C(=O)N[C@@H](CO)C(N)=O)NC(=O)[C@H](CCCNC(=N)N)NC(=O)CNC(=O)[C@H](Cc2ccc(O)cc2)NC(=O)[C@H](C(C)C)NC(=O)[C@H](CCC(=O)O)NC1=O` [Peptide P19A] (Ac-SLEEEWAQIECEVYGRCPASES-NH2; disulfide 11-17): the inhibitory constant (Ki) at human IR-A (holoIR-A) (setting [5]) came out at 14 nM; at human IR-A (holoIR-A) (setting [6]) it was 13.0 nM; at human IR-A (holoIR-A) (setting [7]) it was 12.9 nM; on human IR-A (holoIR-A) (setting [8]) it was 16.2 nM. Besides, at human IR-A (holoIR-A) (relative to control peptide IM172N22 devoid of N-terminal phenylacetylation), the “reduction in ki for hIR-A on substitution” value was “lower than 5 fold”. Besides, the “hIRA Phosph IC50 Run 1” value in assay [2] is 172 nM. The “hIRA Phosph IC50 Run 2” value in assay [2] is 109 nM. In addition, the “hIRA Phosph IC50 Run 3” value in assay [2] is recorded as 148 nM. Further, in assay [2], the IC50 came out at 143 nM.

The values above are taken from article PMC9519552, “Activation of the human insulin receptor by non-insulin-related peptides” (Nature Communications, 2022).
